# Patent US20250188030A1, “Biphenyl and Phenylpyridine Compounds” (Pfizer Inc., priority 2023, published 2025)
# pIC50, pKi: −log10 of the molar value. Like-named read-outs stand apart in the source and are kept apart here.
# What was measured:
# [1] = biological target: KAT2A (Homo sapiens (Human), UniProt Q92830); experiment: KAT2A acetyltransferase biochemical assay (RapidFire mass spectrometry, AcCoA to CoA)
# Method: • A) Compound preparation • 1) Prepare 10 mM stock solutions in 100% DMSO from solid material. • 2) Serial dilute 10 mM, 1 mM, 0.1 or 0.01 mM compound stocks 3-fold in 100% DMSO for 11-point dose response. • B) Reagent preparation • 1) Prepare 1×assay buffer containing 40 mM bis tris propane pH 8.0, 10 mM NaCl, 0.5 mM EDTA, and 0.002% Tween-20. • 2) Dilute Histone peptide (CPC Scientific) and KAT enzyme together in assay buffer to 1.25×. • 3) Dilute AcCoA (Sigma) in assay buffer to 5×. • C) Enzyme reaction • 1) Final reaction conditions for each KAT assay in a 100ul assay reaction volume: • i) KAT2A 0.5 nM, 1 uM AcCoA, 5 uM H3 1-21 peptide, 90-minute reaction • ii) KAT2B 0.5 nM, 1 uM AcCoA, 5 uM H3 1-21 peptide, 90-minute reaction • 2) Add 2 ul of diluted compound series to the assay plate (96-well round-bottom polypropylene plates) or 2 ul of DMSO for control wells. • 3) Add 11 μL of 10% formic acid to 100% effect (HPE) control wells. • 4) Add 80 ul of 1.25× Histone peptide/KAT mix to the assay plate via Multidrop Combi (ThermoFisher). Incubate 15 min at room temperature. • 5) Add 20 ul of 5× AcCoA to the assay plate via Multidrop Combi. • 6) Stop the reaction after the indicated time with the addition of 11 ul of 10% formic acid via Multidrop Combi. • 7) Each reaction was analyzed using Rapid Fire mass spectrometry platform.
# KAT enzymes were expressed using a baculovirus expression system and purified at Pfizer, La Jolla. […] Acetyl coenzyme A was purchased from Sigma-Aldrich (St. Louis, MO). All other biochemical reagents were purchased from Sigma-Aldrich or ThermoFisher Scientific (Waltham, MA).
# KAT assays were performed at room temperature in assay buffer containing 1 μM AcCoA, 5 μM histone peptide, 40 mM bis tris propane pH 8.0, 10 mM NaCl, 0.5 mM EDTA 0.002% Tween-20. 80 ul of 1.25× Histone peptide/enzyme mix was added to a 96-well round-bottom polypropylene assay plate containing 2 ul of serially diluted test compound in 100% dimethyl sulfoxide (DMSO). To start the reaction, 20 ul of 5× AcCoA solution was added to the assay plate. KAT assays were terminated after 90 minutes with the addition of 11 ul of 10% formic acid. All assays used histone H3 (1-21) peptide. The final enzyme concentration for each KAT was as follows: KAT2A, 0.5 nM; KAT2B, 0.5 nM. […] Each reaction was analyzed using Rapid Fire mass spectrometry platform. This methodology leverages an Agilent 6495 triple quadrupole (QQQ) mass spectrometer coupled to a RapidFire model 365 to specifically capture and measure KAT2 acetyltransferase activity, converting AcCoA (substrate) to CoA (product).
# Area under the curve (AUC) for both substrate and product peaks was determined for KAT2 at M.W. 809.6 [Substrate+H]+ and 767.3 [Product+H]+ with a +/−1 Da tolerance, respectively. Acetyltransferase activity (% of DMSO control) was calculated by: ((AUCProduct/AUCsubstrate)-AUCHPE)/(AUCZPE-AUCHPE))*100. Ki values were determined by fitting the % acetyltransferase activity at each inhibitor concentration to the Morrison equation for tightbinding competitive inhibitors using Pfizer proprietary curve fitting software.
# To determine the inhibition of KAT enzymatic activity by test compounds, assay reactions were conducted in a volume of 100 μL in 96-well round-bottom polypropylene assay plate. The reactions were performed in assay buffer (40 mM bis tris propane, pH 8, 10 mM NaCl, 0.5 mM EDTA, 0.002% Tween-20).
# [2] = system: H3K9AC (HT1080 cells); experiment: H3K9AC Sandwich ELISA Assay in HT1080 cells (KAT2A primary cell-based screening assay); set-up: species or system Human
# Outline: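 Acetylated H3K9 quantified by luminescent sandwich ELISA (total H3 capture, H3K9ac detection) on HCl lysates of HT1080 cells. Cells had 24 h compound exposure at 37 °C, top concentration 10 µM, 10-point 3-fold series, 0.1% DMSO; IC50 from four-parameter fitting.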
# [3] = system: MM.1S cells; experiment: MM1.S 10 Day Proliferation Assay (CellTiter-Glo); type: cell-based, Human
# Method: Human B lymphoblast cell line MM.1S was obtained from American Type Culture Collection (ATCC), Manassas, VA USA, Cat. MM.1S (ATCC® CRL-2974™). Cells were cultured in RPMI (Thermo Fisher Scientific/Gibco Life Technologies Cat. #111875-093) plus 10% (v/v) FBS (Thermo Fisher Scientific/Gibco Life Technologies Cat. #26140-079) and 1% Penicillin-Streptomycin (Thermo Fisher Scientific/Gibco Life Technologies Cat. #15070063) at 37° C. in 5% CO2.
# MM1.S cells were trypsinized cell viability count performed, and cells suspended in complete media at 5,556 cells/ml. Cells were then seeded (90 μl/well) into a 96-well round black/clear bottom, ULA (Ultra-Low Attachment surface plate (Corning cat #4520) at a density of 500 cells/well. Cells were then incubated for 16 hours at 37° C. and 5% CO2. Compound dilution plates were prepared in 96-well, clear U-bottom, polypropylene plates (Corning 3365) in 100% DMSO at 10 mM stock concentration in duplicate wells, using a 10-point serial dilution (1:3 dilutions). Compounds were diluted to 1:100 in growth medium. Then 10 μl of diluted compounds were added to each well of the cell plates using a Beckman FX liquid handling system such that the highest compound concentration tested was 10 μM final, with a 0.1% final DMSO concentration in the total volume of 100 μl. Plates were incubated for 10 total days at 37° C. and 5% CO2. Fresh media containing compound was refreshed at 5 days treatment.
# Finally, the treatment plates were removed from the incubator and 100 μl of CellTiter-Glo Luminescent reagent was added to each well, and plates were equilibrated in the dark for 30 minutes. Plates were read on the PHERAstar plate reader using the 96-well with Luminescent reading mode. IC50 values were calculated using a four-parameter fit with GraphPad Prism version 9.5.1 or in house modified IDBS ActivityBase data analyzing package.
# [4] = read-out: KAT2A Ki at 1 μM AcCoA, 5 μM H3 1-21 peptide, 0.5 nM KAT2A, 90-minute reaction
# [5] = Homo sapiens, HT-1080, H3K9AC sandwich ELISA
# [6] = KAT2A Ki at 1 μM AcCoA, 5 μM H3 1-21 peptide, 0.5 nM KAT2A, 90-minute reaction
# Sequence of KAT2A (Q92830 whole entry): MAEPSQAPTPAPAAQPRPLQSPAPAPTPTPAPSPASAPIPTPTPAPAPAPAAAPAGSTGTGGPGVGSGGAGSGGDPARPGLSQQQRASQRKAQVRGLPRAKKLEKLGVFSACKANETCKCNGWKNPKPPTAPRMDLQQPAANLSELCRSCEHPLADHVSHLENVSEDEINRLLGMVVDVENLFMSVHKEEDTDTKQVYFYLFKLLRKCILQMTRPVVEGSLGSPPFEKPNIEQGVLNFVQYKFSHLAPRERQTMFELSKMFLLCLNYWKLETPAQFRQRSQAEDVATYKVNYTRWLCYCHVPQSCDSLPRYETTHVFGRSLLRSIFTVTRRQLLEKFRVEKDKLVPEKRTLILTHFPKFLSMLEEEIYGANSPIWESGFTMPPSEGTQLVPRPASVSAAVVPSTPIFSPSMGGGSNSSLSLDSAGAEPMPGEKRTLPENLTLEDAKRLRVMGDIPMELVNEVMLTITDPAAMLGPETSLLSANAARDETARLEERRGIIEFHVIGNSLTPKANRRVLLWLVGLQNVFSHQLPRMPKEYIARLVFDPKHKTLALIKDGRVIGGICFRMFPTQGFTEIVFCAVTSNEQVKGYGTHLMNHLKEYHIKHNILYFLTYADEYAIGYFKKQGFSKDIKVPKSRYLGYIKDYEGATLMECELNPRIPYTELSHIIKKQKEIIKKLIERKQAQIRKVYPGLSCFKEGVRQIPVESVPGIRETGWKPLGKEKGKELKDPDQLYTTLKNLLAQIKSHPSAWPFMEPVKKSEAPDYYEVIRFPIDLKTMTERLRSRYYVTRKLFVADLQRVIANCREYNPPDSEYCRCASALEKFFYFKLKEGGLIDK
SMILES,"pKi [1, 4]","pIC50 [2, 5]","pIC50 ([3]; Homo sapiens, MM1.S, 240 h)",pIC50 ([2]; H3K9AC sandwich ELISA),"pKi [1, 6]",pIC50 [3]
"CC(C)c1c(F)cccc1-c1cc(C(C)(C)C(=O)NS(=O)(=O)C2(C)CC2)ccc1O[C@@H]1CC[C@@H](NC(=O)[C@@]2(F)CNC3(CCC3)C2)C1 (single isomer, unassigned) [Example C43]",10.22,8.55,8.38,,,
"CCc1c(F)cccc1-c1cc(C(C)(C)C(=O)NS(=O)(=O)C(C)C)ccc1O[C@@H]1CC[C@@H](NC(=O)[C@@]2(F)CNCC(C)(C)C2)C1 (single isomer, unassigned) [Example C45]",9.96,,7.28,8.02,,
"CC(C)S(=O)(=O)NC(=O)C(C)(C)c1ccc(O[C@@H]2CC[C@@H](NC(=O)[C@@]3(F)CNC4(CCC4)C3)C2)c(-c2ccccc2C2CCC2)c1 (single isomer, unassigned) [Example C48]",9.68,8.33,7.72,,,
"CCc1c(F)cccc1-c1cc(CC(=O)NS(=O)(=O)C2(C)CC2)ccc1O[C@@H]1CC[C@@H](NC(=O)[C@@]2(F)CNC3(CCCC3)C2)C1 (single isomer, unassigned) [Example C50]",9.72,9.22,8.85,,,
"CCc1c(F)cccc1-c1cc(CC(=O)NS(=O)(=O)C2(C)CC2)ccc1O[C@@H]1CC[C@@H](NC(=O)[C@@]2(F)CNCC(C)(C)C2)C1 (single isomer, unassigned) [Example C57]",10.30,,8.12,8.39,,
"CCS(=O)(=O)NC(=O)Cc1ccc(O[C@@H]2CC[C@@H](NC(=O)C3(F)CNCC4(CCC4)C3)C2)c(-c2cccc(F)c2C2CCC2)c1 (single isomer, unassigned) [Example C60]",10.40,,8.30,8.49,,
"CC(C)c1ccccc1-c1cc(CC(=O)NS(=O)(=O)C2(C)CC2)ccc1O[C@@H]1CC[C@@H](NC(=O)[C@@]2(F)CNC3(CCCC3)C2)C1 (single isomer, unassigned) [Example C61]",10.15,9.70,9.15,,,
"CCS(=O)(=O)NC(=O)Cc1ccc(O[C@@H]2CC[C@@H](NC(=O)[C@@]3(F)CNC4(CCCC4)C3)C2)c(-c2ccccc2C(C)C)c1 (single isomer, unassigned) [Example C63]",10.10,8.66,8.28,,,
"CCc1c(F)cccc1-c1cc(CC(=O)NS(=O)(=O)C(C)C)ccc1O[C@@H]1CC[C@@H](NC(=O)[C@@]2(F)CNCC(C)(C)C2)C1 (single isomer, unassigned) [Example C67]",10.15,8.36,7.86,,,
"C[C@@H](C(=O)O)c1ccc(O[C@@H]2CC[C@@H](NC(=O)[C@@H]3CC(C)(C)CN3C)C2)c(-c2cccc(F)c2C2CCC2)c1 (single isomer, unassigned) [Example D13]",7.97,7.35,6.38,,,
"C[C@H](C(=O)O)c1ccc(O[C@@H]2CC[C@@H](NC(=O)[C@@H]3CC(C)(C)CN3C)C2)c(-c2cccc(F)c2C2CCC2)c1 (single isomer, unassigned) [Example D14]",8.08,7.59,6.77,,,
"CC(C(=O)NS(C)(=O)=O)c1ccc(O[C@@H]2CC[C@@H](NC(=O)[C@@H]3CC(C)(C)CN3C)C2)c(-c2cccc(F)c2C2CCC2)c1 (single isomer, unassigned) [Example E8]",,8.32,,,9.54,7.78
"CC(C(=O)NS(C)(=O)=O)c1ccc(O[C@@H]2CC[C@@H](NC(=O)[C@@H]3CC(C)(C)CN3C)C2)c(-c2cccc(F)c2C2CCC2)c1 (single isomer, unassigned) [Example E9]",,,,8.41,9.68,8.20
"O=C(O)Cc1ccc(OC[C@H]2C[C@H](NC(=O)[C@@]3(F)CNC4(CCC4)C3)C2)c(-c2cccc(F)c2C2CCC2)c1 (single isomer, unassigned) [Example F3, (2′-cyclobutyl-3′-fluoro-6-{[(1r,3r)-3-{[(7ξ)-7-fluoro-5-azaspiro[3.4]octane-7-carbonyl]amino}cyclobutyl]methoxy}[1,1′-biphenyl]-3-yl)acetic acid]",8.61,8.07,7.02,,,
"CCS(=O)(=O)NC(=O)C(C)(C)c1ccc(OC[C@H]2C[C@H](NC(=O)[C@@]3(F)CNC4(CCC4)C3)C2)c(-c2cccc(F)c2C2CCC2)c1 (single isomer, unassigned) [Example G5, (7Rξ)-N-{(1r,3r)-3-[({2′-cyclobutyl-5-[1-(ethanesulfonamido)-2-methyl-1-oxopropan-2-yl]-3′-fluoro[1,1′-biphenyl]-2-yl}oxy)methyl]cyclobutyl}-7-fluoro-5-azaspiro[3.4]octane-7-carboxamide]",9.77,8.02,7.44,,,
"C[C@@H](C(=O)O)c1nn(C)cc1-c1ccc(O[C@@H]2CC[C@@H](NC(=O)[C@]3(F)CNC4(CCC4)C3)C2)c(-c2cccc(F)c2C2CCC2)c1 (single isomer, unassigned) [Example J4]",9.52,,7.63,7.73,,
"C[C@H](C(=O)O)c1nn(C)cc1-c1ccc(O[C@@H]2CC[C@@H](NC(=O)[C@]3(F)CNC4(CCC4)C3)C2)c(-c2cccc(F)c2C2CCC2)c1 (single isomer, unassigned) [Example J5]",9.72,8.56,7.67,,,
"CC(C)n1cc(-c2ccc(O[C@@H]3CC[C@@H](NC(=O)[C@@]4(F)CNC5(CCC5)C4)C3)c(-c3cccc(F)c3C3CCC3)c2)c(C(=O)O)n1 (single isomer, unassigned) [Example J16]",10.10,,7.47,8.30,,
"Cc1cc(NS(C)(=O)=O)n(-c2ccc(O[C@@H]3CC[C@@H](NC(=O)[C@@]4(F)CNC5(CCC5)C4)C3)c(-c3cccc(F)c3C3CCC3)c2)n1 (single isomer, unassigned) [Example L3]",9.68,8.16,7.36,,,
"CC(C)c1c(F)cccc1-c1cc(CC(=O)O)ccc1O[C@@H]1CC[C@@H](NC(=O)[C@@]2(F)CNC3(CCC3)C2)C1 [Example A32, [3′-fluoro-6-{[(1R,3R)-3-{[(7S)-7-fluoro-5-azaspiro[3.4]octane-7-carbonyl]amino}cyclopentyl]oxy}-2′-(propan-2-yl)[1,1′-biphenyl]-3-yl]acetic acid]",9.08,8.35,7.50,,,
"CC(C)c1ccccc1-c1cc(C(=O)O)ccc1O[C@@H]1CC[C@@H](NC(=O)[C@@]2(F)CNC3(CCC3)C2)C1 [Example A39, 6-{[(1R,3R)-3-{[(7S)-7-fluoro-5-azaspiro[3.4]octane-7-carbonyl]amino}cyclopentyl]oxy}-2′-(propan-2-yl)[1,1′-biphenyl]-3-carboxylic acid]",9.46,8.19,7.53,,,
"CC1(S(=O)(=O)NC(=O)Cc2ccc(O[C@@H]3CC[C@@H](NC(=O)[C@@]4(F)CNC5(CCC5)C4)C3)c(-c3cccc(F)c3C3CCC3)c2)CC1 [Example B35, (7ξ)-N-[(1R,3R)-3-({2′-cyclobutyl-3′-fluoro-5-[2-(1-methylcyclopropane-1-sulfonamido)-2-oxoethyl][1,1′-biphenyl]-2-yl}oxy)cyclopentyl]-7-fluoro-5-azaspiro[3.4]octane-7-carboxamide]",10.40,9.22,8.89,,,
